Source: patent US7063977B2, “Enzymatic resolution of t-butyl taxane derivatives” (Bristol-Myers Squibb Company, priority 2001, dated 2006)
Read-outs that look alike come from different tables or passages of the source.

What was measured:
tumors in mice = conditions: oral administration; AACR 1999 abstract 1905; cited from earlier work
human tumor xenografts [1] = conditions: oral; xenografts implanted in athymic mice
human tumor xenografts [2] = conditions: oral; xenografts implanted in athymic rates
[3] = oral administration; Eiseman et al., Suffness et al., quoted from WO 98/53811; cited from earlier work
[4] = up to 160 mg/kg/day, Suffness et al.; cited from earlier work
sc M109 = conditions: oral, doses as high as 160 mg/kg/inj; toxic doses not reached; cited from earlier work

Structure (SMILES) | oral activity against tumors in mice (tumors in mice) | activity of orally administered drug against human tumor xenografts (human tumor xenografts [1]) | activity of orally administered drug against human tumor xenografts (human tumor xenografts [2]) | absorbed when administered orally [3] | antitumor activity on oral administration [4] | efficacy in murine tumor models (sc M109) (sc M109)
CC(=O)O[C@H]1C(=O)[C@@]2(C)[C@H]([C@H](OC(=O)c3ccccc3)[C@]34OC(=O)O[C@H]3[C@H](OC(=O)[C@H](O)[C@H](CC(C)C)NC(=O)OC(C)(C)C)C(C)=C1C4(C)C)[C@]1(OC(C)=O)CO[C@@H]1C[C@@H]2O [IDN-5109] | oral activity |  |  |  |  | 
CC(=O)O[C@H]1C(=O)[C@@]2(C)[C@H]([C@H](OC(=O)c3ccccc3)[C@]3(O)C[C@H](OC(=O)[C@H](O)[C@@H](NC(=O)c4ccccc4)c4ccccc4)C(C)=C1C3(C)C)[C@]1(OC(C)=O)CO[C@@H]1C[C@@H]2O [paclitaxel] |  | unsuccessful | unsuccessful | less than 1% | no evidence of antitumor activity | without signs of any efficacy
